Measurements taken from the supplement of paper PMC13380429.

Tests used:
Details in all cases: 72 h
[1] = test system: Vero E6; experiment: relative viability EC50 (midpoint between 100% and the lowest measured viability); higher = less toxic
[2] = test system: U2OS; experiment: as above
[3] = test system: Calu-3; experiment: as above
[4] = test system: Vero E6; experiment: cell viability relative to DMSO; higher = less toxic
[5] = test system: U2OS; experiment: as above
[6] = test system: HepG2; experiment: as above
[7] = test system: Calu-3; experiment: as above
[8] = test system: Caco-2; experiment: as above
[9] = test system: Vero E6; experiment: drug sensitivity score (DSS) for viability; higher = more toxic; extreme values may be limits of the assay
[10] = test system: U2OS; experiment: as above
[11] = test system: HepG2; experiment: as above
[12] = test system: Calu-3; experiment: as above
[13] = test system: Caco-2; experiment: as above
[14] = test system: Caco-2; experiment: relative viability EC50 (midpoint between 100% and the lowest measured viability); higher = less toxic
[15] = test system: HepG2; experiment: as above

SMILES	relative viability EC50 [1] [µM]	relative viability EC50 [2] [µM]	relative viability EC50 [3] [µM]	cell viability ([4]; 1 nM) [%]	cell viability ([4]; 10 nM) [%]	cell viability ([4]; 100 nM) [%]	cell viability ([4]; 1000 nM) [%]	cell viability ([4]; 10000 nM) [%]	cell viability ([5]; 1 nM) [%]	cell viability ([5]; 10 nM) [%]	cell viability ([5]; 100 nM) [%]	cell viability ([5]; 1000 nM) [%]	cell viability ([5]; 10000 nM) [%]	cell viability ([6]; 1 nM) [%]	cell viability ([6]; 10 nM) [%]	cell viability ([6]; 100 nM) [%]	cell viability ([6]; 1000 nM) [%]	cell viability ([6]; 10000 nM) [%]	cell viability ([7]; 1 nM) [%]	cell viability ([7]; 10 nM) [%]	cell viability ([7]; 100 nM) [%]	cell viability ([7]; 1000 nM) [%]	cell viability ([7]; 10000 nM) [%]	cell viability ([8]; 1 nM) [%]	cell viability ([8]; 10 nM) [%]	cell viability ([8]; 100 nM) [%]	cell viability ([8]; 1000 nM) [%]	cell viability ([8]; 10000 nM) [%]	drug sensitivity score [9]	drug sensitivity score [10]	drug sensitivity score [11]	drug sensitivity score [12]	drug sensitivity score [13]	relative viability EC50 [14] [µM]	relative viability EC50 [15] [µM]
CC(C)/N=c1\cc2n(-c3ccc(Cl)cc3)c3ccccc3nc-2cc1Nc1ccc(Cl)cc1 [clofazimine]	> 10	> 10	> 10	101	99.6	103	104	91.3	98	100	101	98.1	91.6	94.1	105	89.8	97	68.3	101	97.6	91.3	98.1	94.4	106	101	98.3	84.5	60.4	0	0	1.9	0	3.8		
CCCn1c(=O)c2nc(-c3ccccc3)[nH]c2n(CCC)c1=O [1,3-dipropyl-8-phenylxanthine]	> 10	> 10	> 10	96.6	95.4	94	95.7	94.9	98.1	95.4	90.1	97.1	90.5	108	99.8	103	90.3	69.5	102	102	101	102	89.4	91.1	96.4	90.3	102	81.9	0	0	2.7	0	0.4	> 10	
O=C1N[C@@H]2[C@@H](O)[C@@H](O)[C@H](O)[C@@H](CO)N2C1=O [kifunensine]	> 10	> 10	> 10	107	89.7	96.2	94.5	84.2	104	102	96.2	97.4	99	95.6	103	99.4	98.7	82.6	100	106	103	90.7	93	98.5	105	91.8	75.1	67.5	0.3	0	0.5	0	4.8		> 10
Nc1nc(Cl)nc2c1ncn2[C@@H]1O[C@H](CO)[C@@H](O)[C@H]1O [2-chloroadenosine]	> 10	> 10	> 10	93.4	102	103	102	93.7	101	96.1	102	107	101	99.9	101	104	104	81.8	110	103	98.8	113	84.5						0	0	0.3	0.1			> 10
Nc1nc2c(ncn2COCCO)c(=O)[nH]1 [acyclovir]	> 10	> 10	> 10	110	92.7	98.3	98	101	91.6	101	94.7	99.7	104	96.3	92	95.1	94.7	96.3	95.3	101	102	106	119						0	0	0	0			> 10
O=C1Nc2ccc(I)cc2C1=Cc1cc(Br)c(O)c(Br)c1 [GW-5074]	> 10	> 10	> 10	97	97.3	95.8	96	108	99.3	97.3	100	96.1	95.5	90.3	98.5	97.3	97.5	68.9	95.1	94.2	104	90.9	114	95.6	97.5	108	95	88.3	0	0	1.8	0	0.2	> 10	
CC(=O)OC/C=C(C)/C=C/C=C(C)/C=C/C1=C(C)CCCC1(C)C [retinyl-acetate]	> 10		> 10	103	103	102	98	102											93.7	90.4	112	90.7	93.3	112	99	104	95.9	114	0			0	0	> 10	
C=CC(=O)Nc1cccc(Oc2nc(Nc3ccc(N4CCN(C)CC4)cc3)nc3ccsc23)c1 [olmutinib]	2.49		1.35	100	98.7	96.7	92.2	5.1	100	101	96.6	92.7	59.4	95	93.5	100	99.6	51	110	105	89	68.4	14.8	99.2	98.3	90.9	83.5	69	6.5	3.2	2.6	8.3	3.2		
CN(Cc1cnc2nc(N)nc(N)c2n1)c1ccc(C(=O)N[C@@H](CCC(=O)O)C(=O)O)cc1 [methotrexate]	0.284	> 10	> 10	103	99.1	96.1	14.7	14.3	103	98.2	98	92.1	97.2	94.3	103	105	21.8	18.6	104	94.3	93.9	95.8	96.5	98.3	99.6	97.6	67.1	66	16.1	0	14	0	6.1		0.379
CN(C)c1nc(N)c(C(=O)Nc2cccnc2)nc1Cl [ACDPP]	> 10	> 10	> 10	102	95.3	98.3	95.1	99.9	93.6	98	97.7	98.5	105	104	105	103	80.9	58.9	100	96.8	104	96.4	94.6	87.4	98.7	93	89.2	87.9	0	0	4.5	0	0	> 10	
O=C(NO)C1(CS(=O)(=O)c2ccc(Oc3ccc(Cl)cc3)cc2)CCOCC1 [CTS-1027]	> 10	> 10	> 10	101	104	99.4	95	94.5	99.7	105	100	106	88.1	97.7	88.7	104	83.5	96.3	95	101	93.1	104	98.2	104	109	105	98.8	74.3	0	0	0	0	1.2		> 10
COc1ccc([C@@H]2CC(=O)c3c(O)cc(O)cc3O2)cc1O [hesperetin]	> 10	> 10	> 10	94.9	98.7	98.9	90.1	108	104	96.3	97.1	99.8	102						102	93.7	102	93	89.2	104	88.5	92.7	104	98.4	0	0		0.1	0	> 10	
CNCCC=C1c2ccccc2CCc2ccccc21 [nortriptyline]	> 10	> 10	> 10	106	106	102	90	79.8	99.5	96.8	98.1	97.4	93.8	110	106	112	119	65	100	98.7	99.4	96.5	82.1	108	86.1	96.4	97.7	70	1.6	0	1	0.9	1.6		
O=C1C[C@@H](c2ccc(O)cc2)Oc2cc(O)ccc21 [MF-101]	> 10	> 10	> 10	101	102	95.3	92.1	99.8	98.4	95.4	96.4	99.7	95.9	95.8	93.7	103	97.6	90.4	103	112	106	104	99.4	81.1	99.7	92.3	103	78.1	0	0	0	0	0.4		> 10
O=C(Nc1ccc(S(=O)(=O)C(F)(F)F)cc1)C1=CCN(c2ncccc2C(F)(F)F)CC1	> 10	> 10	> 10	99.6	91.7	91.3	88.9	94.7	96.1	101	93.2	101	84.9	107	87.9	104	96.2	38.6	96.2	106	99.6	101	79.9	97.3	98.4	90.7	97.4	62.4	0.7	0.2	3.9	0.5	2.2		2.67
